Measured values published in patent publication US10760110B2, “Antibiotic testing and screening system” (priority 2017, dated 2020).
Where two headings read alike, the source gives them in different places.

Columns and labels:
[1] = tested on: K. pneumoniae NVT1001 gyrA/parC and gyrA/parC/ramR mutants and revertants; test: Etest MIC of quinolones, gyrA/parC and gyrA/parC/ramR mutants and their revertants (Table 11); assay type: cell-based; details: Klebsiella pneumoniae
From the text: The allelic-exchange method was used to restore the wild-type gene in the K. pneumoniae NVT1001 mutants with constructed chromosome-mediated resistance mechanisms, as described by Tsai et al.^19 Briefly, a DNA fragment of the entire wild-type gene sequence along with flanking regions was amplified from K. pneumoniae NVT1001 using PCR with specific primers. The resulting PCR fragment was digested and then cloned into pUT-KB. For homologous recombination, this plasmid was transformed into E. coli S17-1 λpir^23 via electroporation and mobilized into the K. pneumoniae NVT1001 mutant via conjugation. […] After incubation in 20 mL BHI broth for 6 hours at 37° C. in the absence of kanamycin, the fully grown cultures were spread onto LB agar plates supplemented with 10% sucrose. After the double crossover occurred, the sucrose-resistant and kanamycin-susceptible colonies were selected, and the restoration of the wild-type gene was confirmed via DNA sequencing.
(§1) The MICs of antibiotics were determined using the Etest (Biodisk AB, Sweden) according to the manufacturer's instructions. The MICs from the Etest, which fall between standard two-fold dilutions, were rounded up to the next highest two-fold value. The MICs of ceftazidime and cefotaxime against K. pneumoniae NVT1001 harbouring the pACYC177 plasmid with blaOXA-48 were further determined using a broth microdilution test according to the recommendations of the CLSI,^25 and the results were interpreted according to the breakpoints established by the CLSI in 2017.^25 Meanwhile, due to the lack of CLSI breakpoints in 2016 and 2017, the results for cephalothin were interpreted according to the breakpoints established by the CLSI in 2015,^26 and the results for moxifloxacin were interpreted according to the breakpoints established by the EUCAST in 2017.^27

[2] = tested on: K. pneumoniae NVT1001 strains with QnrB, QnrS or AAC(6′)-Ib-cr plasmids; test: Etest MIC of quinolones, GyrA/ParC mutations, ΔramR and/or QnrB, QnrS or AAC(6′)-Ib-cr (Table 12); assay type: cell-based; details: Klebsiella pneumoniae
Protocol: DNA fragments of the resistance genes along with their flanking regions were amplified from clinical plasmids via PCR with specific primer pairs. The resulting PCR fragments were digested and then cloned into the plasmid pACYC177 or pACYC184. The resulting plasmids were then transformed into K. pneumoniae strain NVT1001 via electroporation. The recombinant bacteria were plated onto LB agar plates containing kanamycin (50 mg/L) or chloramphenicol (50 mg/L), and the presence of the cloned gene was confirmed via PCR and DNA sequencing.
as §1

COc1c(N2C[C@@H]3CCCN[C@@H]3C2)c(F)cc2c(=O)c(C(=O)O)cn(C3CC3)c12 [Moxifloxacin, moxifloxacin]
MIC ([1]; S83F/D87N/S80I mutant): 32 µg/mL | MIC ([1]; S83F/D87N/S80I::F83S/N87D/I80S revertant, read-out: MIC): 0.125 µg/mL | MIC ([1]; S83F/D87N/S80I::I80S revertant, read-out: MIC): 1 µg/mL | MIC ([1]; S83F/D87N/S80I::N87D revertant, read-out: MIC): 0.5 µg/mL | MIC ([1]; S83F/D87N/S80I::N87D/I80S revertant, read-out: MIC): 0.5 µg/mL | MIC ([1]; S83I/D87N/S80I mutant): > 32 µg/mL | MIC ([1]; S83I/D87N/S80I::I80S revertant, read-out: MIC): 1 µg/mL | MIC ([1]; S83I/D87N/S80I::I83S/N87D/I80S revertant, read-out: MIC): 0.125 µg/mL | MIC ([1]; S83I/D87N/S80I::N87D revertant, read-out: MIC): 4 µg/mL | MIC ([1]; S83I/D87N/S80I::N87D/I80S revertant, read-out: MIC): 1 µg/mL | MIC ([1]; S83L/D87N/S80I mutant): 32 µg/mL | MIC ([1]; S83L/D87N/S80I::I80S revertant, read-out: MIC): 1 µg/mL | MIC ([1]; S83L/D87N/S80I::L83S/N87D/I80S revertant, read-out: MIC): 0.125 µg/mL | MIC ([1]; S83L/D87N/S80I::N87D revertant, read-out: MIC): 1 µg/mL | MIC ([1]; S83L/D87N/S80I::N87D/I80S revertant, read-out: MIC): 0.5 µg/mL | MIC ([1]; S83Y/D87N/S80I mutant): 32 µg/mL | MIC ([1]; S83Y/D87N/S80I::I80S revertant, read-out: MIC): 0.5 µg/mL | MIC ([1]; S83Y/D87N/S80I::N87D revertant, read-out: MIC): 0.5 µg/mL | MIC ([1]; S83Y/D87N/S80I::N87D/I80S revertant, read-out: MIC): 0.5 µg/mL | MIC ([1]; S83Y/D87N/S80I::Y83S/N87D/I80S revertant, read-out: MIC): 0.125 µg/mL | MIC ([1]; ΔramR/S83I/D87N/S80I mutant): > 32 µg/mL | MIC ([1]; ΔramR/S83I/D87N/S80I:: ramR/I83S revertant): 1 µg/mL | MIC ([1]; ΔramR/S83I/D87N/S80I:: ramR/I83S/I80S revertant): 0.5 µg/mL | MIC ([1]; ΔramR/S83I/D87N/S80I:: ramR/I83S/N87D revertant): 0.25 µg/mL | MIC ([1]; ΔramR/S83I/D87N/S80I::I83S/N87D/I80S revertant): 1 µg/mL | MIC ([1]; ΔramR/S83I/D87N/S80I::N87D revertant): > 32 µg/mL | MIC ([1]; ΔramR/S83I/D87N/S80I::N87D/I80S revertant): 8 µg/mL | MIC ([1]; ΔramR/S83I/D87N/S80I::ramR/I83S/N87D/I80S): 0.125 µg/mL | MIC ([2]; AAC(6′)-Ib-cr on pACYC177, S83I mutant): 1 µg/mL | MIC ([2]; AAC(6′)-Ib-cr on pACYC177, S83I/D87N/S80I mutant): > 32 µg/mL | MIC ([2]; AAC(6′)-Ib-cr on pACYC177, S83I/S80I mutant): 8 µg/mL | MIC ([2]; AAC(6′)-Ib-cr on pACYC177, WT (NVT1001), read-out: MIC): 0.125 µg/mL | MIC ([2]; AAC(6′)-Ib-cr on pACYC177, ΔramR mutant): 1 µg/mL | MIC ([2]; AAC(6′)-Ib-cr on pACYC177, ΔramR/S83I mutant): 16 µg/mL | MIC ([2]; AAC(6′)-Ib-cr on pACYC177, ΔramR/S83I/D87N/S80I mutant): > 32 µg/mL | MIC ([2]; AAC(6′)-Ib-cr on pACYC177, ΔramR/S83I/S80I mutant): > 32 µg/mL | MIC ([2]; QnrB on pACYC177, S83I mutant): 8 µg/mL | MIC ([2]; QnrB on pACYC177, S83I/D87N/S80I mutant): > 32 µg/mL | MIC ([2]; QnrB on pACYC177, S83I/S80I mutant): > 32 µg/mL | MIC ([2]; QnrB on pACYC177, WT (NVT1001), read-out: MIC): 2 µg/mL | MIC ([2]; QnrB on pACYC177, ΔramR mutant): > 32 µg/mL | MIC ([2]; QnrB on pACYC177, ΔramR/S83I mutant): > 32 µg/mL | MIC ([2]; QnrB on pACYC177, ΔramR/S83I/D87N/S80I mutant): > 32 µg/mL | MIC ([2]; QnrB on pACYC177, ΔramR/S83I/S80I mutant): > 32 µg/mL | MIC ([2]; QnrS on pACYC177, S83I mutant): 8 µg/mL | MIC ([2]; QnrS on pACYC177, S83I/D87N/S80I mutant): > 32 µg/mL | MIC ([2]; QnrS on pACYC177, S83I/S80I mutant): > 32 µg/mL | MIC ([2]; QnrS on pACYC177, WT (NVT1001), read-out: MIC): 1 µg/mL | MIC ([2]; QnrS on pACYC177, ΔramR mutant): > 32 µg/mL | MIC ([2]; QnrS on pACYC177, ΔramR/S83I mutant): > 32 µg/mL | MIC ([2]; QnrS on pACYC177, ΔramR/S83I/D87N/S80I mutant): > 32 µg/mL | MIC ([2]; QnrS on pACYC177, ΔramR/S83I/S80I mutant): > 32 µg/mL | MIC ([2]; no supplemental plasmid, S83I mutant): 1 µg/mL | MIC ([2]; no supplemental plasmid, S83I/D87N/S80I mutant): > 32 µg/mL | MIC ([2]; no supplemental plasmid, S83I/S80I mutant): 8 µg/mL | MIC ([2]; no supplemental plasmid, WT (NVT1001), read-out: MIC): 0.125 µg/mL | MIC ([2]; no supplemental plasmid, ΔramR mutant): 1 µg/mL | MIC ([2]; no supplemental plasmid, ΔramR/S83I mutant): 8 µg/mL | MIC ([2]; no supplemental plasmid, ΔramR/S83I/D87N/S80I mutant): > 32 µg/mL | MIC ([2]; no supplemental plasmid, ΔramR/S83I/S80I mutant): > 32 µg/mL
